In PubChem BioAssay (NCI):
Several values for one entry are separate records, joined by “and”; a condition that tells them apart may be missing. Identical values can stand only once.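 Following 48 hours of exposure in 96-well plates, responses at five concentrations were used to interpolate endpoints linearly. GI50 = concentration required for 50% inhibition of growth. TGI denotes the concentration required for complete inhibition of growth.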

Legend:
Experiment in all cases: NCI-60 cell line screen, 48 h
ACHN renal = system: ACHN renal
NCI-H23 lung = system: NCI-H23 lung
OVCAR-4 ovarian = system: OVCAR-4 ovarian
SK-MEL-2 melanoma = system: SK-MEL-2 melanoma
OVCAR-8 ovarian = system: OVCAR-8 ovarian
NCI/ADR-RES ovarian = system: NCI/ADR-RES ovarian
RPMI-8226 leukemia = system: RPMI-8226 leukemia
CCRF-CEM leukemia = system: CCRF-CEM leukemia
SK-MEL-28 melanoma = system: SK-MEL-28 melanoma
M14 melanoma = system: M14 melanoma

SMILES	GI50 (ACHN renal)	TGI (ACHN renal)	GI50 (NCI-H23 lung)	TGI (NCI-H23 lung)	GI50 (OVCAR-4 ovarian)	TGI (OVCAR-4 ovarian)	GI50 (SK-MEL-2 melanoma)	TGI (SK-MEL-2 melanoma)	GI50 (OVCAR-8 ovarian)	TGI (OVCAR-8 ovarian)	GI50 (NCI/ADR-RES ovarian)	TGI (NCI/ADR-RES ovarian)	GI50 (RPMI-8226 leukemia)	TGI (RPMI-8226 leukemia)	GI50 (CCRF-CEM leukemia)	TGI (CCRF-CEM leukemia)	GI50 (SK-MEL-28 melanoma)	TGI (SK-MEL-28 melanoma)	GI50 (M14 melanoma)	TGI (M14 melanoma)
COC(=O)Nc1nc2ccc(C(=O)c3cccc(I)c3)cc2[nH]1	0.13 µM	21.1 µM	0.183 µM	21.1 µM	0.818 µM	15.3 µM	1.26 µM	> 72.3 µM	0.132 µM	30.4 µM	0.0448 µM	1.54 µM	0.0365 µM	1.27 µM	0.0402 µM	5.26 µM	1.13 µM	> 81.2 µM	0.072 µM	20.7 µM
COC(=O)CC[C@@H](C)[C@H]1CC[C@H]2[C@@H]3CC[C@@H]4C[C@H](O)CC[C@]4(C)[C@H]3CC[C@]12C		39.8 µM		32.9 µM		36.5 µM		34.2 µM		38.2 µM		43.6 µM		> 100 µM		46.4 µM		35.6 µM		35.8 µM
Nc1ccc(C#Cc2ccccc2C#CCCCCO)cc1	14.5 µM	27.5 µM	18.2 µM	35.1 µM	16.7 µM	32.6 µM	18.8 µM	37.1 µM	17 µM	33.5 µM	18.9 µM	40.4 µM	18.1 µM	44.2 µM	13.2 µM	28.1 µM	9.31 µM	21.9 µM	14.1 µM	28.1 µM
Cc1ccsc1C(NC(=O)c1ccccc1)c1cc(Cl)c2cccnc2c1O (stereo not drawn)	0.45 µM	11.2 µM	0.65 µM	17.5 µM	0.479 µM	12.8 µM	0.609 µM	8.75 µM	0.405 µM	24 µM	0.284 µM	7.18 µM	0.475 µM	16.3 µM	0.48 µM	39 µM	0.688 µM	18.9 µM	0.892 µM	9.43 µM
Cc1ccc(NC(=O)COc2ccc(Cl)cc2)cc1Cl		> 100 µM		74.9 µM		> 100 µM		> 100 µM		> 100 µM		> 100 µM		> 100 µM		85.9 µM		> 100 µM		> 100 µM
O=C1C2=C(C(=O)c3ccccc31)C(O)(S(=O)(=O)O)C(O)(S(=O)(=O)O)C1N=CC=CC21 (stereo not drawn)	4.47 µM and 3.83 µM	39.2 µM and 19.3 µM	3.87 µM and 3.49 µM	27.6 µM and 18.8 µM	3.66 µM and 2.99 µM	> 100 µM	10.1 µM and 9.93 µM	70.3 µM and 33.1 µM	3.46 µM and 4.23 µM	> 100 µM and 18.6 µM	2.45 µM and 1.27 µM	18.6 µM and 23.7 µM	4.99 µM and 3.99 µM	> 100 µM and 27.6 µM	6.47 µM	> 100 µM	17 µM and 12.1 µM	96.1 µM and 28.6 µM	4.83 µM and 3.2 µM	32.1 µM and 29.4 µM
O=C1/C=C/[C@@H](O)[C@@H]2C[C@@H](O)C[C@H]2/C=C/CCC[C@H](CCO)O1	0.343 µM	> 100 µM	0.227 µM	2.3 µM	0.132 µM	> 100 µM	0.244 µM	0.734 µM	0.153 µM		0.176 µM		0.33 µM	6.34 µM	0.362 µM	> 100 µM	0.0466 µM	0.56 µM	0.155 µM	> 100 µM
Cc1[nH]nc(C(F)(F)F)c1Cc1sc2c(c1C(=O)N1C[C@](C)(O)CO1)c(=O)n(C)c(=O)n2C(C)C	> 100 µM	> 100 µM	> 100 µM	> 100 µM	> 100 µM	> 100 µM	> 100 µM	> 100 µM	> 100 µM	> 100 µM	> 100 µM	> 100 µM	> 100 µM	> 100 µM	> 100 µM	> 100 µM	> 100 µM	> 100 µM	> 100 µM	> 100 µM
O=C1OC(OC/C(Br)=C(\Br)COC2OC(=O)C(Cl)=C2Cl)C(Cl)=C1Cl (stereo not drawn)		13.7 µM		14 µM		19.3 µM		35.9 µM		13.3 µM		25.2 µM		3.94 µM		2.34 µM		22.1 µM		10.4 µM
COc1ccc(C(=O)/C=C/c2ccc(OCc3cccc(C(F)(F)F)c3)c(OC)c2)cc1OC	52.8 µM	> 1000 µM	46.7 µM	> 1000 µM	51.7 µM	> 1000 µM	187 µM	> 1000 µM	48.8 µM	> 1000 µM	42.1 µM	> 1000 µM	25.3 µM	94 µM	38.8 µM	> 1000 µM	262 µM	> 1000 µM	70.9 µM	> 1000 µM
COc1nn(C)cc1Nc1nccc(-c2c[nH]c3c(NC(=O)[C@@H](C)N4CCN(C)CC4)cccc23)n1	37.6 µM	> 100 µM	40.5 µM	> 100 µM	47.9 µM	> 100 µM	25 µM	74.5 µM	> 100 µM	> 100 µM	61.9 µM	> 100 µM	49.5 µM	> 100 µM	40.4 µM	> 100 µM	53.9 µM	> 100 µM	18.9 µM	41.2 µM
COc1c(C(N)=O)cc(-c2ccc(Cl)cc2)cc1-c1ccc(S(N)(=O)=O)cc1	10.1 µM	> 25 µM	> 18.3 µM	> 25 µM	10.6 µM	> 25 µM	7.89 µM	21 µM	9.33 µM	> 25 µM	> 17.5 µM	> 25 µM	9.13 µM	> 25 µM	8.53 µM	> 25 µM	16.9 µM	> 25 µM	> 17.2 µM	> 25 µM
COc1cc2[nH]c3c(c2cc1OC)CCN[C@@]31CC[C@@]2(CC3c4c(cc(OC)c(O)c42)CCN3C)C[C@@H]1OC (stereo partly drawn)		> 100 µM		> 100 µM		> 100 µM		40.6 µM		> 100 µM		> 85.1 µM		> 56.2 µM		94.5 µM		33.5 µM		34.1 µM
Cn1nc(C(F)(F)F)cc1-c1cc(Cl)c(OCc2ccc(Cl)cc2)c(-c2ccc(Cl)c(C(F)(F)F)c2)c1O	1.39 µM	4.6 µM	0.965 µM	3.86 µM	1.66 µM	7.14 µM	0.919 µM	2.34 µM	1.2 µM	5.41 µM	1.35 µM	5.33 µM	0.712 µM	2.55 µM	0.821 µM	19.6 µM	1.14 µM	3.53 µM	1.16 µM	2.93 µM
C[C@]12CCC(=O)C=C1C[C@@H](O)[C@@H]1[C@@H]2CC[C@@]2(C)[C@H]1CC[C@]2(C)O		> 100 µM		> 100 µM		> 100 µM		> 100 µM		> 100 µM		> 100 µM		> 100 µM		> 100 µM		> 100 µM		> 100 µM
C=C1C(=O)O[C@@H]2/C=C(/C)[C@@H](OC(C)=O)C[C@@H](O)/C(C)=C\[C@@H](OC(=O)[C@]3(C)O[C@@H]3C)[C@@H]12		26.8 µM		35.6 µM		45.8 µM		33.9 µM		27.4 µM		> 100 µM		26.3 µM		11.7 µM		23.2 µM		25 µM
c1ccc2c(N=NSc3ncnc4nc[nH]c34)c3ccccc3nc2c1	0.609 µM	7.03 µM	1.7 µM	5.76 µM	1.63 µM	10.5 µM	1.64 µM	3.61 µM	1.5 µM	2.96 µM	1.19 µM	8.39 µM	2.42 µM	6.82 µM	1.31 µM	6.66 µM	1.78 µM	3.71 µM	1.7 µM	4.12 µM
CCOC(=O)N1CCC(N=C2CSc3nnc(-c4cc(C(F)(F)F)cc(C(F)(F)F)c4)n3N2)CC1	2.53 µM	5.99 µM	2.66 µM	8.37 µM	1.86 µM	5.49 µM	2 µM	3.6 µM	2.44 µM	6.25 µM	2.58 µM	8.08 µM	2.54 µM	7.11 µM	2.01 µM	5.28 µM	1.87 µM	3.75 µM	1.95 µM	3.54 µM
CN1C(=O)N(C)C2C1NC(=S)N2/N=C/C=C/c1ccccc1[N+](=O)[O-] (stereo not drawn)	0.988 µM	> 100 µM	2.75 µM	> 100 µM	> 100 µM	> 100 µM	0.587 µM	> 100 µM	3.11 µM	> 100 µM	2.16 µM	> 100 µM	2.74 µM	> 100 µM	0.822 µM	> 100 µM	3.7 µM	> 100 µM	0.92 µM	> 100 µM
CC1=C(CCC(C)CO)O[C@H]2C[C@H]3[C@@H]4CC[C@H]5C[C@@H](O)CC[C@]5(C)[C@H]4CC(=O)[C@]3(C)[C@@H]12 (stereo partly drawn)		> 69.7 µM		36.6 µM		> 82.2 µM		30.6 µM		44.3 µM		40.6 µM		13.8 µM		23.8 µM		> 78.5 µM		27 µM
